From patent US20250204528A1, “USE OF 2-AMINO-3-INDOLYL BUTYRIC ACID OR 3-METHYLPYRROLIDINE-2-CARBOXYLIC ACID AS PLANT IMMUNITY ELICITOR” (NANJING TIANNONG BIOTECHNOLOGY CO., LTD, priority 2021, published 2025)

Assays:
Arabidopsis thaliana = Arabidopsis thaliana under high temperature stress; type: in vivo; set-up: Heat damage index: scale not given here; details: for Heat damage index: 45° C. 12 h, recovery 7 d; for PIABS: photosynthetic performance index after 45° C. 12 h; for Heat damage index reduced by: vs control group
Procedure: Arabidopsis thaliana seeds were sown in a pot with the diameter of 8.5 cm according to about 50 seeds per pot and planted in a greenhouse at 25° C. with the humidity of 60%-70% and the light intensity of 100 μmolm^−2s^−1 (16 h light/8 h dark). The treatment was started when the Arabidopsis thaliana normally grew for 21 d. Concentrations at 0 nm, 1 nm, 10 nm, 100 nm and 1,000 nm were set in the experiment. Meanwhile, 0.02% Tween 20 was added as a surfactant and four replicates were set. The spraying treatment was the same as that of the ryegrass in example 5. 24 h after the second spraying, the Arabidopsis thaliana was transferred to an illumination incubator at 45° C. for a high temperature stress treatment for 12 h. The chlorophyll fluorescences of the Arabidopsis thaliana leaf wafers were measured by using the plant efficiency Handy-PEA. The plants were taken out and transferred to the greenhouse at 25° C. for recovery for 7 d. The damage conditions of the plants were observed and counted, and the heat damage grades were calculated.

[1] = system: tea trees (Baiye 1 cutting seedlings); assay: Tea tree under low temperature stress; type: in vivo; details: for Cold damage index (%): 24 h at −4° C., recovery 3 d; for PIABS: after 24 h at −4° C.; for Cold damage index reduced by / PIABS of the tea leaves improved by: vs control
Procedure: The test tea trees were Baiye 1 cutting seedlings.
The tea seedlings with consistent growth vigor were selected to be transplanted into a plastic pot with the diameter of 18 cm and placed in a greenhouse at 25° C. and with the humidity of 60%-70% to be adapted for growing for about one week for the experiment. Concentrations at 0 nm, 1 nm, 10 nm, 100 nm and 1,000 nm were set in the experiment. Meanwhile, 0.02% Tween 20 was added as a surfactant. The spraying treatment was the same as that of the ryegrass in example 1. A low temperature stress was performed for 24 h at −4° C. The tea seedlings after the stress was finished were taken out and subjected to a dark treatment at normal temperature for 30 min. The chlorophyll fluorescences of leaves at the tops of the tea seedlings were measured by using the plant efficiency Handy-PEA. Then the tea seedlings were placed in the greenhouse at 25° C. for recovery for 3 d. The cold damage conditions were observed, counted and graded. The cold damage index counting and grading standard was shown in table 13 and a calculation formula was as follows.

[2] = system: tomato spotted wilt viruses; assay: Induction of tobacco against infection by tomato spotted wilt viruses; type: in vivo, Nicotiana benthamiana; details: for Disease index / Relative immune effect (%): tobacco; for Disease indexes of the tobacco / Relative immune effects: each treatment in concentration range 0.1-10 nm; for Content of virus proteins: relative protein content in leaves after 3 d, Western blot/Image J
Procedure: Tomato spotted wilt viruses were taken from Yunnan province of China. An initial virus source was placed in a refrigerator at −80° C. for storage and activated by inoculation on Nicotiana benthamiana leaves by using a friction inoculation. Virus plasmids were extracted for transformation of Escherichia coli competent cells. The bacteria were coated on a resistant plate for culture, single colonies were selected for PCR screening, and positive colonies were selected for sequencing and subsequent plasmid extraction. The plasmids with normal sequencing were added into Agrobacterium competent cells and subjected to the Agrobacterium transformation by using an electric shock method. The transformed Agrobacterium liquid was coated on a screening plate with corresponding resistance and cultured at 28±1° C. for 48 h. Single colonies of the Agrobacterium on the transformation plate were selected, placed in a 5-mL LB medium containing the corresponding resistance and cultured overnight at 28° C. and 180 rpm. The bacteria were collected by centrifugation at 6,000 rpm for 2 min, suspended in an Agrobacterium treatment buffer (10 mM MgCl2, 10 mM MES and 10 μM acetosyringone) to enable the OD600 value of the suspension to be 0.5, and treated in a dark place at 28° C. for 3 h for later use.
2-amino-3-indolyl butyric acid was dissolved in distilled water and gradiently diluted with distilled water to obtain solutions of 0 nM, 0.1 nM, 1 nM and 10 nM. Nicotiana benthamiana seeds were sown in a small pot, illuminated at 22±1° C. for 12 h/12 h, and cultured for 5 weeks. Healthy tobacco plants (preferably 8-10 leaves) were selected and sprayed with the 2-amino-3-indolyl butyric acid solutions at the above concentrations on stems and leaves. The treatment was repeated once every 24 h and a total of two treatments was performed. After 24 h, the Agrobacterium liquid with the uniform concentration was extracted by using a 1 mL injector, an injection port of the injector was directly pressed on a small hole on the back of the tobacco leaves, and the bacterium liquid was slowly injected to infiltrate the whole leaves. The infiltrated tobacco was transferred to the environment at 22±1° C. and with 12 h/12 h illumination for culturing. The tobacco was observed and recorded by a microscope after 3 d. Meanwhile, the sample was taken, the gray levels of protein bands were analyzed by using Western blot combined with an Image J software, and the relative protein content of the viruses in the leaves was determined. The disease condition of the tobacco leaves was observed after 15 d and the disease index was recorded according to GB/T23222-2008 Grade and investigation method of tobacco diseases and insect pests. The formula was as follows: […]
Grading standard of diseases caused by tomato spotted wilt viruses (grading and investigation by taking plants as units): • grade 0: the whole plants were disease-free; • grade 1: the veins of interior leaves were obvious or leaves were slightly spotted, and the diseased plants were not obviously dwarfed; • grade 3: one third leaves were spotted but not deformed, or the plants were dwarfed to the heights of more than three fourths of those of normal plants; • grade 5: one third to one half leaves were spotted, or a few leaves were deformed, or main veins were blackened, or the plants were dwarfed to the heights of two thirds to three fourths of those of the normal plants; • grade 7: one half to two thirds leaves were spotted or deformed, or a few main lateral veins were necrotic, or the plants were dwarfed to the heights of one half to two thirds of those of the normal plants; and • grade 9: the leaves of the whole plates were spotted, severely deformed or necrotic, or the diseased plants were dwarfed to the heights of […] of those of the normal plants.

[3] = 10 nm, as printed with % in summary
[4] = treatment concentration 0.1 nm, 15 d after inoculation
[5] = treatment concentration 1 nm, 15 d after inoculation

Question: What does the source list for CC(c1c[nH]c2ccccc12)C(N)C(=O)O (stereo not drawn)?
Answer: Heat damage index (Arabidopsis thaliana; 1 nm): 58; PIABS (Arabidopsis thaliana; 1 nm): 0.90 ± 0.04e; Heat damage index (Arabidopsis thaliana; 10 nm): 46; PIABS (Arabidopsis thaliana; 10 nm): 1.14 ± 0.15 days; Heat damage index (Arabidopsis thaliana; 100 nm): 33; PIABS (Arabidopsis thaliana; 100 nm): 3.28 ± 0.20c; PIABS increased by (times) compared with the control group (Arabidopsis thaliana; 1,000 nm): 20 times; Heat damage index (Arabidopsis thaliana; 1,000 nm): 10; PIABS (Arabidopsis thaliana; 1,000 nm): 7.13 ± 0.23b; Heat damage index reduced by (Arabidopsis thaliana; 1,000 nm): 65%; Cold damage index (%) ([1]; 1 nm): 52%; PIABS ([1]; 1 nm): 26.3 ± 0.04; Cold damage index (%) ([1]; 10 nm): 45%; PIABS ([1]; 10 nm): 30.10 ± 1.70c; Cold damage index (%) ([1]; 100 nm): 35%; PIABS ([1]; 100 nm): 36.51 ± 3.14ab; Cold damage index (%) ([1]; 1,000 nm): 28%; PIABS ([1]; 1,000 nm): 39.36 ± 2.15a; Cold damage index reduced by ([1]; 1,000 nm): 40%; PIABS of the tea leaves improved by ([1]; 1,000 nm): 52%; Disease index [2, 3]: 30.42%; Disease indexes of the tobacco [2]: lower than 50; Relative immune effects [2]: ≥ 45%; Content of virus proteins ([2]; treatment concentration 0.1 nm): 0.41 ± 0.005b; Relative immune effect (%) ([2]; treatment concentration 0.1 nm): 46.68%; Disease index [2, 4]: 49.70 ± 1.51b; Content of virus proteins ([2]; treatment concentration 1 nm): 0.32 ± 0.014c; Relative immune effect (%) ([2]; treatment concentration 1 nm): 56.11%; Disease index [2, 5]: 40.91 ± 3.14c; Relative immune effect (%) ([2]; treatment concentration 10 nm): 67.36%

Question: Which Heat damage index (Arabidopsis thaliana; 1 nm) does the source give for CC1CCNC1C(=O)O (stereo not drawn) [3-methylpyrrolidine-2-carboxylic acid] here?
Answer: 48

Question: What about the PIABS (Arabidopsis thaliana; 1 nm) of the same compound?
Answer: 1.87 ± 0.03e

Question: What about the Heat damage index (Arabidopsis thaliana; 10 nm) of the same compound?
Answer: 37

Question: And the PIABS (Arabidopsis thaliana; 10 nm)?
Answer: 4.06 ± 0.17 days

Question: And the Heat damage index (Arabidopsis thaliana; 100 nm)?
Answer: 30

Question: And the PIABS (Arabidopsis thaliana; 100 nm)?
Answer: 6.53 ± 0.23c

Question: And the “PIABS increased by (times) compared with the control group” value (Arabidopsis thaliana; 1,000 nm)?
Answer: 23 times

Question: And the Heat damage index (Arabidopsis thaliana; 1,000 nm)?
Answer: 8

Question: And the PIABS (Arabidopsis thaliana; 1,000 nm)?
Answer: 10.26 ± 0.46b

Question: And the “Heat damage index reduced by” value (Arabidopsis thaliana; 1,000 nm)?
Answer: 68%

Question: What about the “Cold damage index (%)” value ([1]; 1 nm) of the same compound?
Answer: 47%

Question: What about the PIABS ([1]; 1 nm) of the same compound?
Answer: 23.01 ± 0.02

Question: And the “Cold damage index (%)” value ([1]; 10 nm)?
Answer: 43%

Question: What about the PIABS ([1]; 10 nm) of the same compound?
Answer: 29.65 ± 1.81c

Question: What about the “Cold damage index (%)” value ([1]; 100 nm) of the same compound?
Answer: 34%

Question: What about the PIABS ([1]; 100 nm) of the same compound?
Answer: 35.01 ± 0.27b

Question: What about the “Cold damage index (%)” value ([1]; 1,000 nm) of the same compound?
Answer: 27%

Question: And the PIABS ([1]; 1,000 nm)?
Answer: 41.07 ± 0.31a

Question: And the “Cold damage index reduced by” value ([1]; 1,000 nm)?
Answer: 48%

Question: And the “PIABS of the tea leaves improved by” value ([1]; 1,000 nm)?
Answer: 138%

Question: What about the Disease index [2, 3] of the same compound?
Answer: 21.44%

Question: What about the “Disease indexes of the tobacco” value [2] of the same compound?
Answer: lower than 50

Question: And the Relative immune effects [2]?
Answer: ≥ 50%

Question: And the “Content of virus proteins” value ([2]; treatment concentration 0.1 nm)?
Answer: 0.37 ± 0.003b

Question: And the “Relative immune effect (%)” value ([2]; treatment concentration 0.1 nm)?
Answer: 50.84%

Question: What about the Disease index [2, 4] of the same compound?
Answer: 41.31 ± 0.34b

Question: What about the “Content of virus proteins” value ([2]; treatment concentration 1 nm) of the same compound?
Answer: 0.24 ± 0.001c

Question: And the “Relative immune effect (%)” value ([2]; treatment concentration 1 nm)?
Answer: 68.43%

Question: What about the Disease index [2, 5] of the same compound?
Answer: 27.89 ± 2.16c

Question: And the “Relative immune effect (%)” value ([2]; treatment concentration 10 nm)?
Answer: 75.73%
